Among the data in US4323567A, “Arylmalonamido-1-oxadethiacephalosporins” (priority 1976, dated 1982) are MIC values, retold here.

Read-outs that look alike come from different tables or passages of the source.

Holding throughout (experiment): Minimal inhibitory concentration, nutrient agar plate
One assay concerns Ps. aeruginosa 24. It is filed as cell-based, Pseudomonas aeruginosa. Particulars: Pseudomonas aeruginosa, 24, inoculum size 10^8, pH 7.0, read-out: Minimal inhibitory concentration.
A further assay has as its system Klebsiella pneumoniae. It counts as cell-based. Conditions: inoculum size 10^8, pH 7.0, read-out: Minimal inhibitory concentration.
The next assay relates to Enterobacter cloacae 233. It is filed as cell-based. Particulars: Enterobacter cloacae, 233, inoculum size 10^8, pH 7.0, read-out: Minimal inhibitory concentration.
In a further assay the test system is Ps. aeruginosa 25619. It is filed as cell-based, Pseudomonas aeruginosa. Conditions: Pseudomonas aeruginosa, 25619, inoculum size 10^8, pH 7.0, read-out: Minimal inhibitory concentration.
Another assay concerns P. vulgaris CN-329. It counts as cell-based. Conditions: Proteus vulgaris, CN329, inoculum size 10^8, pH 7.0, read-out: Minimal inhibitory concentration.
Assay [1] deals with Serratia marsescens 13880. It counts as cell-based. Conditions: Serratia, 13880, inoculum size 10^8, pH 7.0, read-out: Minimal inhibitory concentration.
For another assay, the system named is Escherichia coli H. It is filed as cell-based. Conditions: inoculum size 10^8, pH 7.0, read-out: Minimal inhibitory concentration.
The next assay has as its system P. morganii No. 9. It is filed as cell-based, Proteus morganii. Conditions: Morganella morganii, NO.9, inoculum size 10^8, pH 7.0, read-out: Minimal inhibitory concentration.
Assay [2] relates to Pseudomonas aeruginosa Denken. It counts as cell-based. Particulars: inoculum size 10^8, pH 7.0, read-out: Minimal inhibitory concentration.
In another assay the test system is E. coli JC-2. It counts as cell-based. Particulars: Escherichia coli, JC2, inoculum size 10^8, pH 7.0, read-out: Minimal inhibitory concentration.
In another assay the test system is Proteus mirabilis PR-4. It counts as cell-based. Particulars: inoculum size 10^8, pH 7.0, read-out: Minimal inhibitory concentration.
The subject of the next assay is Klebsiella sp. 363. It counts as cell-based. Particulars: inoculum size 10^8, pH 7.0, read-out: Minimal inhibitory concentration.
For another assay, the system named is E. coli 377. It is filed as cell-based, Escherichia coli. Conditions: Escherichia coli, 377, inoculum size 10^8, pH 7.0, read-out: Minimal inhibitory concentration.
A further assay has as its system E. coli 73. It counts as cell-based, Escherichia coli. Conditions: Escherichia coli, 73, inoculum size 10^8, pH 7.0, read-out: Minimal inhibitory concentration.
Where [3] appears, read: ester, in the presence of 5% horse serum, sodium salt.

On to `CC1=C(C(=O)O)N2C(=O)[C@@H](NC(=O)C(N)c3ccccc3)[C@H]2OC1` (stereo partly drawn) [(1), 7β-(α-phenylglycinamido)3-methyl-1-oxadethia-3-cephem-4-carboxlic acid, reference compound], for which the MIC (in the assay on Ps. aeruginosa 24 (as sodium salt); in the assay on Klebsiella pneumoniae (as sodium salt); in the assay with Enterobacter cloacae 233 (as sodium salt); in the assay on Ps. aeruginosa 25619 (as sodium salt); in the assay with P. vulgaris CN-329 (as sodium salt); in assay [1] (as sodium salt)) was above 100 µg/mL in each case. Moreover, the MIC is above 100 µg/mL in the assay on Escherichia coli H (as sodium salt); above 100 µg/mL in the assay with P. morganii No. 9 (as sodium salt); above 100 µg/mL in assay [2] (as sodium salt); above 100 µg/mL with E. coli JC-2 (as sodium salt); above 100 µg/mL with Proteus mirabilis PR-4 (PR4, as sodium salt); above 100 µg/mL in the assay on Klebsiella sp. 363 (SP.363, as sodium salt). The MIC in the assay on E. coli 377 (as sodium salt) and in the assay with E. coli 73 (as sodium salt) was above 100 µg/mL each time.
Regarding `CC(=O)OCC1=C(C(=O)O)N2C(=O)[C@@H](NC(=O)Cc3cccs3)[C@H]2OC1` [(2), 7β-(2thienylacetamido)-1-oxadethiacephalosporanic acid, reference compound], the MIC with Ps. aeruginosa 24 (as sodium salt) was above 100 µg/mL; in the assay with Klebsiella pneumoniae (as sodium salt) it was 1.56 µg/mL; in the assay with Enterobacter cloacae 233 (as sodium salt) it was above 100 µg/mL; in the assay on Ps. aeruginosa 25619 (as sodium salt) it was above 100 µg/mL; with P. vulgaris CN-329 (as sodium salt) it was above 100 µg/mL; in assay [1] (as sodium salt) it was above 100 µg/mL. The MIC with Escherichia coli H (as sodium salt) was 0.39 µg/mL; with P. morganii No. 9 (as sodium salt), above 100 µg/mL; in [2] (as sodium salt) it was above 100 µg/mL; with E. coli JC-2 (as sodium salt), 6.25 µg/mL; with Proteus mirabilis PR-4 (PR4, as sodium salt) it was 1.56 µg/mL; in the assay on Klebsiella sp. 363 (SP.363, as sodium salt) it was above 100 µg/mL. Moreover, the MIC with E. coli 377 (as sodium salt) and in the assay on E. coli 73 (as sodium salt) was above 100 µg/mL throughout.
Consider `Cc1nnc(SCC2=C(C(=O)O)N3C(=O)[C@@H](NC(=O)Cn4cnnn4)[C@H]3OC2)s1` [(3), 7β-(1tetrazolyl)acetamido-3-(2-methyl-1,3,4-thiadiazol-5-yl)thiomethl-1-oxadethia-3-cephem-4-carboxylic acid, reference compound], for which the MIC in the assay with Ps. aeruginosa 24 (as sodium salt) is above 100 µg/mL; in the assay with Klebsiella pneumoniae (as sodium salt) it was 3.13 µg/mL; with Enterobacter cloacae 233 (as sodium salt), above 100 µg/mL; in the assay with Ps. aeruginosa 25619 (as sodium salt), above 100 µg/mL; in the assay on P. vulgaris CN-329 (as sodium salt), above 100 µg/mL; in assay [1] (as sodium salt), above 100 µg/mL. The MIC with Escherichia coli H (as sodium salt) is 1.56 µg/mL; with P. morganii No. 9 (as sodium salt), 50 µg/mL; in [2] (as sodium salt) it was above 100 µg/mL; in the assay on E. coli JC-2 (as sodium salt) it was 1.56 µg/mL; in the assay on Proteus mirabilis PR-4 (PR4, as sodium salt) it was 1.56 µg/mL; in the assay on Klebsiella sp. 363 (SP.363, as sodium salt), above 100 µg/mL. For the same molecule, the MIC was 25 µg/mL in the assay on E. coli 377 (as sodium salt) and above 100 µg/mL in the assay with E. coli 73 (as sodium salt).
In the case of `Cn1nnnc1SCC1=C(C(=O)O)N2C(=O)[C@@H](NC(=O)C(O)c3ccccc3)[C@H]2OC1` (stereo partly drawn) [(4), 7β-mandelamido3-(1-methyltetrazol-5-yl)thiomethyl-1-oxadethia-3-cephm-4-carboxylic acid, reference compound], the MIC is above 100 µg/mL in the assay on Ps. aeruginosa 24 (as sodium salt); 0.2 µg/mL in the assay on Klebsiella pneumoniae (as sodium salt); above 100 µg/mL in the assay on Enterobacter cloacae 233 (as sodium salt); above 100 µg/mL with Ps. aeruginosa 25619 (as sodium salt); above 100 µg/mL with P. vulgaris CN-329 (as sodium salt); 100 µg/mL in assay [1] (as sodium salt). For the same molecule, the MIC is 0.1 µg/mL in the assay on Escherichia coli H (as sodium salt); 100 µg/mL in the assay with P. morganii No. 9 (as sodium salt); above 100 µg/mL in assay [2] (as sodium salt); 0.2 µg/mL in the assay with E. coli JC-2 (as sodium salt); 0.2 µg/mL in the assay on Proteus mirabilis PR-4 (PR4, as sodium salt); above 100 µg/mL with Klebsiella sp. 363 (SP.363, as sodium salt). The MIC in the assay with E. coli 377 (as sodium salt) is 50 µg/mL; in the assay on E. coli 73 (as sodium salt), above 100 µg/mL.
In the case of `Cn1nnnc1SCC1=C(C(=O)O)N2C(=O)[C@@H](NC(=O)C(C(=O)O)c3ccccc3)[C@H]2OC1` (stereo partly drawn) [Example III-1, 7β-(α-phenyl-α-carboxyacetamido)-3-(1-methyltetrazol-5-yl)thiomethyl-1-oxadethia-3-cephem-4-carboxylic acid], the MIC in the assay on Ps. aeruginosa 24 (as sodium salt) is above 100 µg/mL; with Klebsiella pneumoniae (as sodium salt), 0.2 µg/mL; in the assay on Enterobacter cloacae 233 (as sodium salt) it was 0.39 µg/mL; with Ps. aeruginosa 25619 (as sodium salt) it was 3.13 µg/mL; in the assay on P. vulgaris CN-329 (as sodium salt) it was 100 µg/mL; in assay [1] (as sodium salt), 0.78 µg/mL. Besides, the MIC in the assay on Escherichia coli H (as sodium salt) is 0.1 µg/mL; in the assay with P. morganii No. 9 (as sodium salt), 0.39 µg/mL; in assay [2] (as sodium salt), above 100 µg/mL; in the assay with E. coli JC-2 (as sodium salt), 0.2 µg/mL; in the assay with Proteus mirabilis PR-4 (PR4, as sodium salt), 0.39 µg/mL; in the assay with E. coli 377 (as sodium salt), 0.2 µg/mL. Moreover, the MIC in the assay with E. coli 73 (as sodium salt) was above 100 µg/mL.
As for `Cn1nnnc1SCC1=C(C(=O)[O-])N2C(=O)[C@@H](NC(=O)C(C(=O)Oc3ccc4c(c3)CCC4)c3ccccc3)[C@H]2OC1.[Na+]` (stereo partly drawn) [Example III-2, sodium 7β-[α-(5-indanyl)oxycarbonyl-α-phenylacetamido]-3-(1-methyltetrazol-5-yl)thiomethyl-1-oxadethia-3-cephem-4-carboxylate], the MIC with Ps. aeruginosa 24 (setting [3]) was above 100 µg/mL; in the assay with Klebsiella pneumoniae (setting [3]), 0.2 µg/mL; in the assay on Enterobacter cloacae 233 (setting [3]), 0.39 µg/mL; in the assay on Ps. aeruginosa 25619 (setting [3]), 6.25 µg/mL; in the assay on P. vulgaris CN-329 (setting [3]) it was 50 µg/mL; in assay [1] (setting [3]), 0.78 µg/mL. Besides, the MIC was 0.1 µg/mL in the assay with Escherichia coli H (setting [3]); 0.39 µg/mL in the assay with P. morganii No. 9 (setting [3]); above 100 µg/mL in [2] (setting [3]); 0.2 µg/mL with E. coli JC-2 (setting [3]); 0.39 µg/mL in the assay on Proteus mirabilis PR-4 (PR4, ester, in the presence of 5% horse serum, sodium salt); above 100 µg/mL in the assay with Klebsiella sp. 363 (SP.363, ester, in the presence of 5% horse serum, sodium salt). For the same molecule, the MIC in the assay with E. coli 377 (setting [3]) was 0.2 µg/mL; in the assay with E. coli 73 (setting [3]), above 100 µg/mL.
With `Cn1nnnc1SCC1=C(C(=O)O)N2C(=O)[C@@H](NC(=O)C(C(=O)O)c3cccs3)[C@H]2OC1` (stereo partly drawn) [Example III-8, 7β-[α-(2-thienyl)-α-carboxyacetamido]-3-(1-methyltetrazol-5-yl)thiomethyl-1-oxadethia-3-cephem-4-carboxylic acid], the MIC in the assay on Ps. aeruginosa 24 (as sodium salt) was above 100 µg/mL; in the assay on Klebsiella pneumoniae (as sodium salt), 0.1 µg/mL; in the assay on Enterobacter cloacae 233 (as sodium salt), 0.2 µg/mL; in the assay with Ps. aeruginosa 25619 (as sodium salt) it was 3.13 µg/mL; in the assay with P. vulgaris CN-329 (as sodium salt), 50 µg/mL; in [1] (as sodium salt) it was 0.78 µg/mL. The MIC in the assay with Escherichia coli H (as sodium salt) was 0.1 µg/mL; in the assay on P. morganii No. 9 (as sodium salt), 0.39 µg/mL; in [2] (as sodium salt), above 100 µg/mL; in the assay on E. coli JC-2 (as sodium salt), 0.1 µg/mL; with Proteus mirabilis PR-4 (PR4, as sodium salt), 0.2 µg/mL; in the assay on Klebsiella sp. 363 (SP.363, as sodium salt) it was above 100 µg/mL. The MIC in the assay on E. coli 377 (as sodium salt) was 0.2 µg/mL; with E. coli 73 (as sodium salt), above 100 µg/mL.
With `Cn1nnnc1SCC1=C(C(=O)O)N2C(=O)[C@@H](NC(=O)C(C(=O)O)c3ccsc3)[C@H]2OC1` (stereo partly drawn) [Example III-9, 7β-[α-(3-thienyl)-α-carboxyacetamido]-3-(1-methyltetrazol-5-yl)thiomethyl-1-oxadethia-3-cephem-4-carboxylic acid], the MIC with Klebsiella pneumoniae (as sodium salt) came to 0.2 µg/mL; in the assay on Enterobacter cloacae 233 (as sodium salt), 0.39 µg/mL; in the assay with Ps. aeruginosa 25619 (as sodium salt) it was 6.25 µg/mL; in the assay with P. vulgaris CN-329 (as sodium salt), 100 µg/mL; in assay [1] (as sodium salt), 0.78 µg/mL; in the assay on Escherichia coli H (as sodium salt), 0.1 µg/mL. The MIC was 0.39 µg/mL with P. morganii No. 9 (as sodium salt); above 100 µg/mL in [2] (as sodium salt); 0.1 µg/mL with E. coli JC-2 (as sodium salt); 0.39 µg/mL in the assay on Proteus mirabilis PR-4 (PR4, as sodium salt); above 100 µg/mL with Klebsiella sp. 363 (SP.363, as sodium salt); 0.2 µg/mL in the assay on E. coli 377 (as sodium salt). Further, the MIC in the assay on E. coli 73 (as sodium salt) is above 100 µg/mL.
Turning to `O=C(O)Cn1nnnc1SCC1=C(C(=O)O)N2C(=O)[C@@H](NC(=O)C(C(=O)O)c3cccs3)[C@H]2OC1` (stereo partly drawn) [Example III-11, 7β-[α-(2-thienyl)-α-carboxyacetamido]-3-(1-carboxymethyltetrazol-5-yl)thiomethyl-1-oxadethia-3-cephem-4-carboxylic acid], the MIC in the assay with Klebsiella pneumoniae (as sodium salt) is 3.13 µg/mL; in the assay with Enterobacter cloacae 233 (as sodium salt) it was 25 µg/mL; in the assay with Ps. aeruginosa 25619 (as sodium salt), above 100 µg/mL; in the assay on P. vulgaris CN-329 (as sodium salt), above 100 µg/mL; in assay [1] (as sodium salt), 25 µg/mL; in the assay with Escherichia coli H (as sodium salt) it was 0.78 µg/mL. Moreover, the MIC was 1.56 µg/mL with P. morganii No. 9 (as sodium salt); above 100 µg/mL in assay [2] (as sodium salt); 12.5 µg/mL in the assay with E. coli JC-2 (as sodium salt); 1.56 µg/mL in the assay with Proteus mirabilis PR-4 (PR4, as sodium salt); above 100 µg/mL in the assay on Klebsiella sp. 363 (SP.363, as sodium salt); 6.25 µg/mL with E. coli 377 (as sodium salt). Also, the MIC in the assay on E. coli 73 (as sodium salt) was above 100 µg/mL.
